# Assay results taken from patent US20250051263A1, “NOVEL IONIZABLE LIPIDS AND LIPID NANOPARTICLES AND METHODS OF USING THE SAME” (Sail Biomedicines, Inc., priority 2021, published 2025).
# Where “and” joins values, the source holds several entries; their conditions need not be identical. Equal entries are not always repeated.
# Experiments:
# [1] = LNP size and polydispersity, Zetasizer Ultra; format: physicochemical
# Excerpt: (§1) All other compositions (i.e., compositions of MC3 (a commercially available ionizable lipid having a chemical name of (6Z,9Z,28Z,31Z)-heptatriacont-6,9,28,31-tetraene-19-yl 4-(dimethylamino)butanoate, and compositions of novel ionizable lipids 7669, 7671, 7668, 767, 7650) are composed of ionizable lipid:structural lipid:sterol:PEG-lipid (SDA lipid #:DSPC:cholesterol:14:0 PEG2000 PE) at a molar ratio of […], respectively. Lipids are solubilized in ethanol. Compositions are then handled as above, except the formulations are maintained at ionizable lipid to mRNA N:P ratio of 6:1. The lipid mix and mRNA solution are mixed at a 1:3 ratio by volume, respectively, on a NanoAssemblr Ignite (Precision Nanosystems) at a total flow rate of 9 mL/min. Resulting compositions are then loaded into Slide-A-Lyzer G2 dialysis cassettes (10 k MWCO) and dialyzed in 200 times sample volume of 1×PBS for 4 hrs at room temp with gentle stirring. The PBS is refreshed, and the compositions are further dialyzed for at least 14 hrs at 4° C. with gentle stirring. The dialyzed compositions are then collected and concentrated by centrifugation at 2000×g using Amicon Ultra centrifugation filters (100 k MWCO). Concentrated particles are characterized for size, polydispersity, and particle concentration using Zetasizer Ultra (Malvern Panalytical) and for mRNA encapsulation efficiency using Quant-iT RiboGreen RNA Assay Kit (ThermoFisher Scientific).
# (§2) The lipid mix and mRNA solution were mixed at a 1:3 ratio by volume, respectively, on the NanoAssemblr Ignite (Precision Nanosystems) at a total flow rate of 9 mL/min. Resulting formulations were then loaded into Slide-A-Lyzer G2 dialysis cassettes (10 k MWCO) and dialyzed in 200 times sample volume of 1×PBS for 2 hrs at room temperature. The PBS was refreshed, and the formulations were further dialyzed for at least 14 hrs at 4° C. with gentle stirring. The dialyzed formulations were then collected and concentrated by centrifugation at 3000×g using Amicon Ultra centrifugation filters (100 k MWCO). The concentrated formulations were characterized for size, polydispersity, and particle concentration using Zetasizer Ultra (Malvern Panalytical) and for mRNA encapsulation efficiency using Quant-iT RiboGreen RNA Assay Kit (ThermoFisher Scientific).
# (§3) For each LNP composition, the lipid mix and mRNA solution were mixed at a 1:3 ratio by volume, respectively, on a NanoAssemblr Ignite (Precision Nanosystems) at a total flow rate of 9 mL/min. The resulting compositions were then loaded into Slide-A-Lyzer G2 dialysis cassettes (10 k MWCO) and dialyzed in 200 times sample volume of 1×PBS for 2 hours at room temperature with gentle stirring. The PBS was refreshed, and the compositions were further dialyzed for at least 14 hours at 4° C. with gentle stirring. The dialyzed compositions were then collected and concentrated by centrifugation at 3000×g using Amicon Ultra centrifugation filters (100 k MWCO). The concentrated particles were characterized for size, polydispersity, and particle concentration using Zetasizer Ultra (Malvern Panalytical) and for mRNA encapsulation efficiency using Quant-iT RiboGreen RNA Assay Kit (ThermoFisher Scientific).
# [2] = mRNA encapsulation efficiency, Quant-iT RiboGreen RNA Assay; format: physicochemical
# Excerpt: as §1, §2, §3
# Balb/c mice = experiment: In-vivo bioluminescent imaging after IV injection of Fluc mRNA LNP; details: for Bioluminescence (IV) Liver / Bioluminescence (IV) Lung / Bioluminescence (IV) Spleen / Bioluminescence (IV) Whole Body / Spleen: Liver Ratio: Example 5 LNP (DOPE 35:16:46.5:2.5), 5 μg FLUC + 5 μg EPO; for Spleen: Liver Ratio: ratio of bioluminescence
# Procedure: 8-9 week old female Balb/c mice are utilized for bioluminescence-based ionizable lipid screening efforts. Mice are obtained from Jackson Laboratories (JAX Stock: 000651) and allowed to acclimate for one week prior to manipulations. Animals are placed under a heat lamp for a few minutes before introducing them to a restraining chamber. The tail is wiped with alcohol pads (Fisher Scientific) and 100 μL of a lipid nanoparticle composition descrbed above containing 10 ug total mRNA (5 ug Fluc+5 ug EPO) is injected intravenously using a 29 G insulin syringe (Covidien). Any resulting bleeding is stemmed using a sterile gauze pad (Fisher Scientific) and animals are placed back into their home cage. 4-6 hours post-dose, animals are injected with 200 μL of 15 mg/mL D-Luciferin (GoldBio) and placed in an isoflurane induction chamber set to deliver 2.5% isoflurane delivered at an oxygen flow rate of 1-2 liters per min. After 5 minutes of isoflurane exposure, mice are placed in set nose cones inside the IVIS Lumina LT imager (PerkinElmer). LivingImage software is utilized for imaging. Whole body bio-luminescence is captured at auto-exposure after which animals are removed from the IVIS and placed into a CO2 chamber for euthanasia. Cardiac puncture is performed on each animal after placing it in dorsal recumbency, and blood collection is performed using a 25 G insulin syringe (BD). Blood is collected in Lithium-Heparin coated tubes (Fisher Scientific) and immediately placed on ice. Once all blood samples are collected, tubes are spun at 2000 G for 10 minutes using a tabletop centrifuge and plasma is aliquoted into individual Eppendorf tubes (Fisher Scientific) and stored at −80 C for subsequent EPO quantification. EPO levels in plasma are determined using EPO MSD kit (Meso Scale Diagnostics).
# 8-9 week old female Balb/c mice were utilized for bioluminescence-based ionizable lipid screening efforts. Mice were obtained from Jackson Laboratories (JAX Stock: 000651) and allowed to acclimate for one week prior to manipulations. Animals were placed under a heat lamp for a few minutes before introducing them to a restraining chamber. The tail was wiped with alcohol pads (Fisher Scientific) and, for each LNP composition descrbed above, 100 μL of a lipid nanoparticle composition descrbed above containing 10 μg total mRNA (5 μg Fluc+5 μg EPO, 5 μg Fluc+5 μg Cre, or 5 μg EGFP) was injected intravenously using a 29 G insulin syringe (Covidien).
# 4-6 hours post-dose, animals were injected with 200 μL of 15 mg/mL D-Luciferin (GoldBio), and placed in set nose cones inside the IVIS Lumina LT imager (PerkinElmer). LivingImage software was utilized for imaging. Whole body bio-luminescence was captured at auto-exposure after which animals are removed from the IVIS and placed into a CO2 chamber for euthanasia. Cardiac puncture was performed on each animal after placing it in dorsal recumbency, and blood collection was performed using a 25 G insulin syringe (BD). Once all blood samples were collected, tubes are spun at 2000 G for 10 minutes using a tabletop centrifuge and plasma was aliquoted into individual Eppendorf tubes (Fisher Scientific) and stored at −80° C. for subsequent EPO quantification. EPO levels in plasma were determined using EPO MSD kit (Meso Scale Diagnostics).
# [3] = Example 5 LNP lipid:DOPE:Plant Cholesterol:DMPE-PEG2k 35:16:46.5:2.5, FLUC/EPO 1:1 mRNA, N:P 6:1
# [4] = IV, 4-6 hours post-dose, spleen
# [5] = LNP ionizable lipid:DOPE:Plant Chol.:DMPE-PEG2k 35:16:46.5:2.5 (Table 1)
# [6] = LNP ionizable lipid:DSPC:Plant Chol.:DMPE-PEG2k 50:10:38.5:1.5
Structure (SMILES),"PDI [1, 3]","Size (nm) [1, 3] [nm]","% EE [2, 3] [%]","Bioluminescence (IV) Liver (Balb/c mice; IV, 4-6 hours post-dose, liver)","Bioluminescence (IV) Lung (Balb/c mice; IV, 4-6 hours post-dose, lung)",Bioluminescence (IV) Spleen (Balb/c mice; [4]),"Bioluminescence (IV) Whole Body (Balb/c mice; IV, 4-6 hours post-dose)",Spleen: Liver Ratio (Balb/c mice; IV),"PDI [1, 5]","Size (nm) [1, 5]","PDI [1, 6]","Size (nm) [1, 6] [nm]","% EE [2, 5]","Bioluminescence Liver (Balb/c mice; LNP lipid:DSPC:Plant Chol.:DMPE-PEG2k 50:10:38.5:1.5, IV, 5 ug Fluc+5 ug EPO mRNA, 4-6 hours post-dose, liver)","Bioluminescence Lung (Balb/c mice; LNP lipid:DSPC:Plant Chol.:DMPE-PEG2k 50:10:38.5:1.5, IV, 5 ug Fluc+5 ug EPO mRNA, 4-6 hours post-dose, lung)","Bioluminescence Spleen (Balb/c mice; LNP lipid:DSPC:Plant Chol.:DMPE-PEG2k 50:10:38.5:1.5, IV, 5 ug Fluc+5 ug EPO mRNA, 4-6 hours post-dose, spleen)","bioluminescence in the liver, spleen, and lung (Balb/c mice; used as part of an ionizable lipid scaffold (LNP), Table 1)"
"CCCCCCCCC(CCCCCCCC)OC(=O)CCCCCCCN(CCCCCCCC(=O)OC(CCCCCCCC)CCCCCCCC)CCNC(=O)CCC(=O)NCCN(CCCCCCCC(=O)OC(CCCCCCCC)CCCCCCCC)CCCCCCCC(=O)OC(CCCCCCCC)CCCCCCCC [Compound 2275, 1-octylnonyl 8-[2-[[4-[2-[bis[8-(1-octylnonoxy)-8-oxo-octyl]amino]ethylamino]-4-oxo-butanoyl]amino]ethyl-[8-(1-octylnonoxy)-8-oxo-octyl]amino] octanoate]",0.10,67.4,94.7,6.8E+07,1.6E+04,2.3E+05,4.8E+08,0.003,,,,,,,,,
"CCCCCCCCCCCC(=O)OCCCCCN(CCCCCCCC(=O)OC(CCCCCCCC)CCCCCCCC)CCNC(=O)CCC(=O)NCCN(CCCCCCCC(=O)OC(CCCCCCCC)CCCCCCCC)CCCCCOC(=O)CCCCCCCCCCC [Compound 2354, 5-[2-[[4-[2-[5-dodecanoyloxypentyl-[8-(1-octylnonoxy)-8-oxo-octyl]amino]ethylamino]-4-oxo-butanoyl]amino]ethyl-[8-(1-octylnonoxy)-8-oxo-octyl]amino] pentyl dodecanoate]",0.10,69.2,94.6,5.6E+06,6.2E+03,7.3E+05,4.5E+07,0.131,,,,,,,,,
"CCCCCCCCCCCOC(=O)CCCCCN(CCCCCCCC(=O)OC(CCCCCCCC)CCCCCCCC)CCOC(=O)OCCN(CCCCCCCC(=O)OC(CCCCCCCC)CCCCCCCC)CCCCCC(=O)OCCCCCCCCCCC [Compound 2218, 1-octylnonyl 8-[2-[2-[[8-(1-octylnonoxy)-8-oxo-octyl]-(6-oxo-6-undecoxy-hexyl)amino]ethoxycarbonyloxy]ethyl-(6-oxo-6-undecoxy-hexyl)amino]octanoate]",0.09,70.0,91.7,1.9E+03,7.9E+02,1.8E+03,4.1E+03,1.019,0.17 and 0.09,71.28 nm and 70.00 nm,0.05,96.55,94.4% and 91.7%,1.16E+03,7.20E+02,8.14E+03,improved bioluminescence
"CCCCCC(CCCCC)CCCOC(=O)CCCCCCCN(CCCCCCCC(=O)OCCCC(CCCCC)CCCCC)CCNC(=O)CCC(=O)NCCN(CCCCCCCC(=O)OCCCC(CCCCC)CCCCC)CCCCCCCC(=O)OCCCC(CCCCC)CCCCC [Compound 2332, bis(4-pentyl-nonyl)13,16-dioxo-9,20-bis(8-oxo-8-((4-pentylnon-yl)oxy)octyl)-9,12,17,20-tetraazaocta-cosanedioate]",0.12,68.1,98.0,2.8E+07,,3.5E+05,9.8E+07,0.045,,,,,,,,,
"CCCCCCCCCCCOC(=O)CCCCCN(CCCCCCCC(=O)OC(CCCCCCCC)CCCCCCCC)CCNC(=O)NCCN(CCCCCCCC(=O)OC(CCCCCCCC)CCCCCCCC)CCCCCC(=O)OCCCCCCCCCCC [Compound 2246, 1-octylnonyl8-[2-[2-[[8-(1-octylnonoxy)-8-oxo-octyl]-(6-oxo-6-undecoxy-hexyl)amino]ethylcarbamoylamino]ethyl-(6-oxo-6-undecoxy-hexyl)amino]octanoate]",0.05,62.7,94.9,1.8E+07,3.7E+03,1.3E+05,1.3E+08,0.007,,,,,,,,,
"CCCCCCCCCCC(CC)OC(=O)CCCCCN(CCCCCCCC(=O)OC(CCCCCCCC)CCCCCCCC)CCNC(=O)/C=C/C(=O)NCCN(CCCCCCCC(=O)OC(CCCCCCCC)CCCCCCCC)CCCCCC(=O)OC(CC)CCCCCCCCCC (centres unmarked) [Compound 2378, 1-octylnonyl 8-[[6-(1-ethylundecoxy)-6-oxo-hexyl]-[2-[[(E)-4-[2-[[6-(1-ethylundecoxy)-6-oxo-hexyl]-[8-(1-octylnonoxy)-8-oxo-octyl]amino]ethylamino]-4-oxo-but-2-enoyl]amino]ethyl]amino]octanoate]",0.08,107.8,93.0,1.6E+07,7.6E+03,2.2E+05,1.8E+08,0.007,,,,,,,,,
